Assay results as given in the supplement of paper PMC10307832.

Assays:
Assay in all cases: relative viability (nuclei count vs DMSO), 5 days (fraction); higher = more cells survive
Vismodegib + Pictilisib = compound: CS(=O)(=O)c1ccc(C(=O)Nc2ccc(Cl)c(-c3ccccn3)c2)c(Cl)c1 [Vismodegib] + CS(=O)(=O)N1CCN(Cc2cc3nc(-c4cccc5[nH]ncc45)nc(N4CCOCC4)c3s2)CC1 [Pictilisib] (partner 1 µM)
How it was run: (§1)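 Relative viability is defined as nuclei in treated wells over nuclei in vehicle wells. Duplicate plates were run and medians reported. Lung cancer cell lines in 1536-well plates were dosed by pin tool one day after seeding, with one drug or with a fixed anchor-drug dose plus five library-drug doses (not always all listed) in √10 steps, and nuclei were counted after 5 days.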

Ruxolitinib + Pictilisib = compound: N#CC[C@H](C1CCCC1)n1cc(-c2ncnc3[nH]ccc23)cn1 [Ruxolitinib] + CS(=O)(=O)N1CCN(Cc2cc3nc(-c4cccc5[nH]ncc45)nc(N4CCOCC4)c3s2)CC1 [Pictilisib] (partner 1 µM)
How it was run: as §1

VE-821 + Pictilisib = compound: CS(=O)(=O)c1ccc(-c2cnc(N)c(C(=O)Nc3ccccc3)n2)cc1 [VE-821] + CS(=O)(=O)N1CCN(Cc2cc3nc(-c4cccc5[nH]ncc45)nc(N4CCOCC4)c3s2)CC1 [Pictilisib] (partner 1 µM)
How it was run: as §1

VE-821 + Decitabine = compound: CS(=O)(=O)c1ccc(-c2cnc(N)c(C(=O)Nc3ccccc3)n2)cc1 [VE-821] + Nc1ncn([C@H]2C[C@H](O)[C@@H](CO)O2)c(=O)n1 [Decitabine] (partner 2 µM)
How it was run: as §1

Cell Line	relative viability (Vismodegib + Pictilisib; first compound 0.08 µM)	relative viability (Vismodegib + Pictilisib; first compound 0.253 µM)	relative viability (Vismodegib + Pictilisib; first compound 0.8 µM)	relative viability (Vismodegib + Pictilisib; first compound 2.53 µM)	relative viability (Vismodegib + Pictilisib; first compound 8 µM)	relative viability (Ruxolitinib + Pictilisib; first compound 0.08 µM)	relative viability (Ruxolitinib + Pictilisib; first compound 0.253 µM)	relative viability (Ruxolitinib + Pictilisib; first compound 0.8 µM)	relative viability (Ruxolitinib + Pictilisib; first compound 2.53 µM)	relative viability (Ruxolitinib + Pictilisib; first compound 8 µM)	relative viability (VE-821 + Pictilisib; first compound 0.08 µM)	relative viability (VE-821 + Pictilisib; first compound 0.253 µM)	relative viability (VE-821 + Pictilisib; first compound 0.8 µM)	relative viability (VE-821 + Pictilisib; first compound 2.53 µM)	relative viability (VE-821 + Pictilisib; first compound 8 µM)	relative viability (VE-821 + Decitabine; first compound 0.08 µM)	relative viability (VE-821 + Decitabine; first compound 0.253 µM)	relative viability (VE-821 + Decitabine; first compound 0.8 µM)	relative viability (VE-821 + Decitabine; first compound 2.53 µM)	relative viability (VE-821 + Decitabine; first compound 8 µM)
ABC-1	0.602	0.841	0.712	0.757	0.772	0.875	0.742	0.867	0.705	0.738	0.902	0.684	0.721	0.751	0.466	1.13	0.974	0.809	0.903	0.989
LOU-NH91	0.556	0.515	0.516	0.482	0.532	0.477	0.493	0.524	0.514	0.56	0.527	0.506	0.496	0.524	0.525	0.833	0.813	0.812	0.836	0.805
NCI-H727	0.525	0.395	0.277	0.257	0.402	0.427	0.384	0.6	0.309	0.725	0.418	0.314	0.232	0.458	0.227	0.865	0.799	0.952	0.916	0.751
NCI-H2023	0.268	0.229	0.195	0.238	0.254	0.251	0.188	0.247	0.215	0.228	0.278	0.223	0.191	0.194	0.135	0.249	0.259	0.205	0.194	0.13
NCI-H1563	0.649	0.591	0.647	0.643	0.72	0.653	0.669	0.691	0.623	0.661	0.581	0.613	0.648	0.663	0.731					
LCLC-103H	0.606	0.533	0.574	0.633	0.646	0.58	0.597	0.592	0.524	0.597	0.572	0.51	0.663	0.75	0.494	0.749	0.702	0.778	0.77	0.729
HARA	0.472	0.423	0.417	0.396	0.448	0.467	0.472	0.404	0.426	0.328	0.509	0.294	0.408	0.401	0.477	0.551	0.636	0.613	0.615	0.516
RERF-LC-KJ	0.585	0.496	0.663	0.567	0.561	0.517	0.447	0.656	0.53	0.393	0.496	0.498	0.463	0.547	0.482	0.731	0.681	0.633	0.725	0.609
NCI-H2009	0.818	0.858	0.727	0.812	0.908	0.913	0.901	0.987	0.508	0.658	0.873	0.754	0.881	0.894	0.664	0.381	0.413	0.425	0.413	0.398
NCI-H2126	0.519	0.521	0.446	0.493	0.484	0.493	0.472	0.531	0.55	0.582	0.483	0.436	0.487	0.507	0.439	0.523	0.576	0.577	0.588	0.528
NCI-H460	0.3	0.385	0.286	0.318	0.313	0.179	0.309	0.307	0.386	0.114	0.416	0.355	0.288	0.488	0.325	0.554	0.543	0.366	0.276	0.0965
SW 900																0.471	0.456	0.472	0.469	0.386
NCI-H1703	0.223	0.216	0.302	0.254	0.249	0.255	0.265	0.232	0.24	0.205	0.241	0.233	0.25	0.227	0.192					
CAL-12T		0.509	0.263	0.241	0.36		0.355	0.416	0.435	0.471	0.479	0.394	0.448	0.427	0.314					
EBC-1	0.38	0.433	0.386	0.426	0.433	0.386	0.309	0.583	0.353	0.32	0.295	0.353	0.382	0.433	0.312					
NCI-H2342																0.773	0.754	0.704	0.75	0.682
NCI-H1299	0.761	0.815	0.72	0.787	0.96	0.773	0.761	0.883	0.716	0.504	0.769	0.606	0.689	0.771	0.357					
Calu-6	0.934	0.915	0.886	0.918	0.859	0.99	0.943	0.958	0.828	0.667	1.1	0.973	0.918	0.778	0.523					
IA-LM	0.363	0.354	0.277	0.281	0.379	0.349	0.35	0.387	0.544	0.46	0.412	0.341	0.443	0.749	0.551					
NCI-H1648																0.658		0.54	0.498	0.471
NCI-H522																0.678	0.67	0.7	0.727	0.638
